Measurements published in patent publication US20250282895A1, “PHARMACEUTICAL COMPOSITIONS OF CHEMOTHERAPEUTIC AGENTS BASED ON BETA-S[…]-AMINO ACID DERIVATIVES” (priority 2021, published 2025).
Counter-ions that a name gives are not always drawn.

Assay: Comparative stability, Formulation 3 (based on Evomela, SBE6.5-β-CD)
Format: physicochemical
Protocol: The stability of Compound (1c) either as the HCl salt or as the free base was compared to the stability of melphalan HCl and/or bendamustine HCl in various pharmaceutical formulations and at different concentrations and at temperatures of 0° C. or 25° C.
The stability of the compounds in the pharmaceutical formulations was determined at concentrations within the range from 0.4 mg/mL to 0.5 mg/mL, from 0.9 mg/mL to 1.1 mg/mL, and from 1.8 mg/mL to 2.1 mg/mL.
The amount of the active pharmaceutical ingredient (API) (Compound (1c), melphalan or bendamustine) in the pharmaceutical formulations at different times during storage was determined using HPLC/UV as described in detail for Example 4 and Example 5.
Evomela® is an injectable formulation of melphalan hydrochloride, 4-[bis(2-chloroethyl)amino]-L-phenylalanine hydrochloride, approved by the FDA. Evomela® is supplied as a sterile white to off-white lyophilized powder in a single-dose vial for intravenous use. Each vial containing 50 mg melphalan free base equivalent to 56 mg melphalan hydrochloride and 2,700 mg betadex sulfobutyl ether (SBE6.5-β-CD; sulfobutyl ether β-cyclodextrin sodium) sodium, NF. Normal saline solution (0.9% Sodium Chloride Injection, USP) (8.6 mL as directed) is used to reconstitute Evomela® to a total of 10 mL having a 5 mg/mL nominal concentration of melphalan. The required volume of Evomela® needed for a patient dose is withdrawn from the vial(s) and added to the appropriate volume of 0.9% Sodium Chloride Injection, USP, to a final nominal concentration of 0.45 mg/mL of melphalan. This solution is then infused via an injection port or central venous catheter.
A series of 12 mL glass vials each containing 5.5 mg (0.0165 mmol of Compound (1c) free base and 270 mg of SBE6.5-β-CD, Captisol®) were prepared as described in Example 4.
The cyclodextrin derivative/Compound (1c) free base guest-host inclusion complex was reconstituted by dissolving the guest-host inclusion complex in 0.86 mL of 0.9% saline to provide 1.0 mL of a solution having a nominal concentration of 5.5 mg/mL of Compound (1c) free base.
(§1) A 1.0 mL aliquot of this solution was diluted with 10.0 mL of 0.9% saline, and the pH adjusted with 5 μL of a saturated aqueous NaHCO3 solution to provide 11.0 mL of a clear, colorless solution having a nominal concentration of 0.50 mg/mL of Compound (1c) from Compound (1c) free base and a pH from 5.8 to 6.1.
as §1, with “4.5” for “10.0”, “5.5” for “11.0”, “1.0” for “0.50”, “of about” for “from 5.8 to”
as §1, with “1.75” for “10.0”, “2.75” for “11.0”, “2.0” for “0.50”, “of about” for “from 5.8 to”
A series of 12 mL glass vials each containing 6.1 mg (0.0165 mmol of Compound (1c) mono-hydrochloride salt (corresponding to 5.5 mg of Compound (1c) free base) and 270 mg of SBE6.5-β-CD, Captisol®) were prepared as described in Example 5.
The cyclodextrin derivative/Compound (1c) mono-HCl salt guest-host inclusion complex was reconstituted by dissolving the guest-host inclusion complex in 0.86 mL of 0.9% saline to provide 1.0 mL of a solution having a nominal concentration of 6.1 mg/mL of Compound (1c) mono-HCl salt (corresponding to a nominal concentration of 5.5 mg/mL of the Compound (1c) free base).
as §1, with “0.5” for “1.0”, “5.0” for “10.0”, “5.5” for “11.0”, “mono-hydrochloride” for “free base”, “5.3” for “5.8”, “5.5. […]” for “6.1.”

[1] = Formulation 3, 0° C., 0.5 hours, 0.4-0.5 mg/mL, pH 5.8-6.1 (melphalan), pH 5-6 (Compound (1c)•HCl)
[2] = Formulation 3, 0° C., 2.0 hours, 0.4-0.5 mg/mL, pH 5.8-6.1 (melphalan), pH 5-6 (Compound (1c)•HCl)

Row | SMILES | % API [1] | % API (Formulation 3, 0° C., 0.5 hours, 0.9-1.1 mg/mL, pH 5-6) | % API (Formulation 3, 0° C., 0.5 hours, 1.8-2.1 mg/mL, pH 5-6) | % API [2] | % API (Formulation 3, 0° C., 2.0 hours, 0.9-1.1 mg/mL, pH 5-6) | % API (Formulation 3, 0° C., 2.0 hours, 1.8-2.1 mg/mL, pH 5-6) | % API (Formulation 3, 25° C., 0.5 hours, 0.4-0.5 mg/mL, pH 5.8-6.1 (melphalan), pH 5-6 (Compound (1c)•HCl), mono hydrochloride salt) | % API (Formulation 3, 25° C., 0.5 hours, 0.9-1.1 mg/mL, pH 5-6 (Compound (1c)•HCl), mono hydrochloride salt) | % API (Formulation 3, 25° C., 0.5 hours, 1.8-2.1 mg/mL, pH 5-6 (Compound (1c)•HCl)) | % API (Formulation 3, 25° C., 2.0 hours, 0.4-0.5 mg/mL, pH 5.8-6.1 (melphalan), pH 5-6 (Compound (1c)•HCl), mono hydrochloride salt) | % API (Formulation 3, 25° C., 2.0 hours, 0.9-1.1 mg/mL, pH 5-6 (Compound (1c)•HCl), mono hydrochloride salt) | % API (Formulation 3, 25° C., 2.0 hours, 1.8-2.1 mg/mL, pH 5-6 (Compound (1c)•HCl), mono hydrochloride salt) | % API (Formulation 3, 25° C., 0.5 hours, 0.4-0.5 mg/mL, pH 5.8-6.1 (melphalan), pH 5-6 (Compound (1c)•HCl)) | % API (Formulation 3, 25° C., 2.0 hours, 0.4-0.5 mg/mL, pH 5.8-6.1 (melphalan), pH 5-6 (Compound (1c)•HCl))
1 | Cc1ccc(N(CCCl)CCCl)cc1C[C@H](N)CC(=O)O [Compound (1c)•HCl, (S)-3-amino-4-(5-(bis(2-chloroethyl)amino)-2-methylphenyl) butanoic acid mono hydrochloride salt] | 97% | 97% | 100% | 97% | 91% | 99% | 97% | 97% | 100% | 97% | 91% | 99% | – | –
2 | Cl.N[C@@H](Cc1ccc(N(CCCl)CCCl)cc1)C(=O)O [Melphalan•HCl, 4-[bis(2-chloroethyl)amino]-L-phenylalanine hydrochloride, reference compound] | 97% | – | – | 92% | – | – | – | – | – | – | – | – | 97% | 92%
